The values below come from US5503988A, “Process for producing a cholesterol-reduced substance” (priority 1992, dated 1996).

Where two headings read alike, the source gives them in different places.

Assay [1] has as its system epicholesterol dehydrogenase from Mycobacterium sp. EPI-40. The class given is biochemical. Here is the method:
With 0.1 ml of a 1 mM epicholesterol micelle solution containing 0.33% Triton X-100 are mixed 0.3 ml of 20 mM Tris-HCl buffer (pH 8.0) containing 1 mM dithiothreitol, 0.1 ml of a 10 mM NAD solution, and 0.01 ml of 50 mM magnesium chloride. 0.05 ml of the enzyme solution is added to the mixture, and the mixture is allowed to stand at 37° C. for 2 hours. 0.05 ml of chloroform is added and sterol is extracted to stop the reaction.
Cholestenone produced in the reaction mixture is determined with high performance liquid chromatography. A quantitative determination is made using an ODS column (Inertsil ODS-2 column, 4.6×250 mm, product of GL Science Co.), using methanol as the mobile phase. […] The enzyme activity which produces 1 μmol of cholestenone per minute is defined as 1 unit.

The subject of assay [2] is cholesterol oxidase from Botrytis cinerea CO-33. It is filed as biochemical. As to the method: To 0.1 ml of 1 mM cholesterol micelle solution containing 0,33% Triton X-100 is added 0.3 ml of 20 mM phosphate/citrate buffer (pH 6.0), 0.05 ml of the enzyme solution is added to the mixture, and the reaction is carried out at 37° C. for 10 minutes. 0.05 ml of chloroform is added thereto to extract sterol, stopping the reaction.
Cholestenone in the reaction mixture is determined with a TLC/FID IATROSCAN (product to Diayatron Co.). […] The enzyme activity which produces 1 μmol of cholestenone per minute is defined as 1 unit.

As to `O=S(=O)(O)c1cc[c]([Hg][Cl])cc1` [p-chloromercury phenylsulfonate], the “residual activity (activity without inhibitor defined as 100%)” value in assay [1] (1 mM inhibitor added, allowed to stand 2 hours at pH 8.0, 37° C.) stood at 7%; in assay [2] (1 mM inhibitor added, reaction for 10 minutes at pH 6.0, 37° C.), 100%.
As for `O=C(O)CN(CCN(CC(=O)O)CC(=O)O)CC(=O)O` [ethylenediamine tetraacetate], the “residual activity (activity without inhibitor defined as 100%)” value in assay [1] (pH 8) came out at 71%; in assay [2] (pH 6), 93%.
`O=C(O)CI` [iodoacetic acid]: the “residual activity (activity without inhibitor defined as 100%)” value is recorded as 67% in assay [1] (pH 8) and 89% in assay [2] (pH 6).
